Experimental data from paper PMC4339887, “Selective Sirt2 inhibition by ligand-induced rearrangement of the active site” (Nature Communications, 2015).

Experiments:
human Sirt5 = target: T1, human Sirt5 (Homo sapiens, UniProt Q9NXA8); assay: HPLC-based assay, non-labelled succinyl-lysine peptide; assay type: biochemical; conditions: 200 μM, succinyl-lysine substrate
T1 construct: human Sirt5_34–302 (Uniprot: Q9NXA8); made in house
T1 sequence (Q9NXA8 34-302): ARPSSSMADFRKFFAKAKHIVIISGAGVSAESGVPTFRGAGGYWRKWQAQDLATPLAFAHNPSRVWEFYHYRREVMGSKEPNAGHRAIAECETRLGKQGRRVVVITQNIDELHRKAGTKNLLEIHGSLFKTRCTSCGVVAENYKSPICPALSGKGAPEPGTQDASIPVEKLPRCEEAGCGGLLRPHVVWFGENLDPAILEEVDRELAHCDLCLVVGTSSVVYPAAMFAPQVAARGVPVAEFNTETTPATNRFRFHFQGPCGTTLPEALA

Human Sirt2_56–356 = target: T2, Human Sirt2_56–356 (Homo sapiens, UniProt Q8IXJ6); assay: competition analyses / inhibition kinetics, α-tubulin peptide, HPLC; assay type: biochemical; conditions: NAD+ competition analysis
T2 construct: Human Sirt2_56–356 (0.2 mg ml^−1 final concentration); His10 (N, cleaved yes); made in house; host or cells: E. coli BL21(DE3)Codonplus RIPL
T2 sequence (Q8IXJ6 56-356): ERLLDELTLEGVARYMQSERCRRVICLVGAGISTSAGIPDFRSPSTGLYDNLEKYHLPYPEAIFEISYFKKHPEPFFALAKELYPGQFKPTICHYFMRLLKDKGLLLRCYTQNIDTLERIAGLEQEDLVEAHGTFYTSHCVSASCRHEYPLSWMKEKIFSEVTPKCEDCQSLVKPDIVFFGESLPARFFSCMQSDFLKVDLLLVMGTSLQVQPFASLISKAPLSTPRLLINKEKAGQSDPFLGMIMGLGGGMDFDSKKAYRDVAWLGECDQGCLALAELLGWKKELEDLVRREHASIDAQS
Text: The peak areas were integrated and converted to initial velocities calculated from the peak areas as the fraction of deacetylated peptide from total peptide.

human Sirt1 = target: T3, human Sirt1 (Homo sapiens, UniProt Q96EB6); assay: HPLC-based conversion assay, non-labelled acetyl-lysine α-tubulin peptide; conditions: read-out: inhibition of Sirt1
T3 sequence (Q96EB6 133-747): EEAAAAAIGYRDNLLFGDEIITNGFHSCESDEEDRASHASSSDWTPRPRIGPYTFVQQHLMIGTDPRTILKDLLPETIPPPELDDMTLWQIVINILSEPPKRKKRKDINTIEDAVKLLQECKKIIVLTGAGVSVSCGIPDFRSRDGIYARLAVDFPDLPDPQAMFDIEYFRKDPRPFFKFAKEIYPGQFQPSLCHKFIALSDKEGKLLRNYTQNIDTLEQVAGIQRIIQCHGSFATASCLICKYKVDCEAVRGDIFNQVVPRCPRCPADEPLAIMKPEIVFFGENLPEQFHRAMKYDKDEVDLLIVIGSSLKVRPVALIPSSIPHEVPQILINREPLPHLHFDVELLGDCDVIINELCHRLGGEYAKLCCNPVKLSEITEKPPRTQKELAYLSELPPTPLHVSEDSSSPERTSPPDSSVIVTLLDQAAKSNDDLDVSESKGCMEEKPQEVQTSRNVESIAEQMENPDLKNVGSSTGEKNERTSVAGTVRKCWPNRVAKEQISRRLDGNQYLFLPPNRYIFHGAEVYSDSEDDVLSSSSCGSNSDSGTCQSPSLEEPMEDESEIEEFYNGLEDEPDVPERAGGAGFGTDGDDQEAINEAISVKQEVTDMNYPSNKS

Cc1cc(C)nc(SCC(=O)Nc2ncc(Cc3cccc4ccccc34)s2)n1 [SirReal2]
effect on activity of Sirt5 (human Sirt5): very little effect
mode of inhibition towards NAD+ (Human Sirt2_56–356): partially non-competitive
inhibition at 100 µM (human Sirt1): 22%
